Where two headings read alike, the source gives them in different places.
Columns and labels:
M2 muscarinic receptors = molecular target: T1, M2 muscarinic receptors (Rattus norvegicus, UniProt P10980); test: Displacement of 3H-QNB from rat cerebellum, 50 mM phosphate buffer; assay type: binding; details: for Ki / % H / %L / % H2 / % L2: cerebellum; for RATIOS d:c: KL2 : KH2 cerebellum (3H-QNB)
T1 construct: displacing from rat brain homogenates, cerebellum or frontal cortex; from tissue; host or cells: rat cerebellum homogenates
T1 sequence (P10980 1-466): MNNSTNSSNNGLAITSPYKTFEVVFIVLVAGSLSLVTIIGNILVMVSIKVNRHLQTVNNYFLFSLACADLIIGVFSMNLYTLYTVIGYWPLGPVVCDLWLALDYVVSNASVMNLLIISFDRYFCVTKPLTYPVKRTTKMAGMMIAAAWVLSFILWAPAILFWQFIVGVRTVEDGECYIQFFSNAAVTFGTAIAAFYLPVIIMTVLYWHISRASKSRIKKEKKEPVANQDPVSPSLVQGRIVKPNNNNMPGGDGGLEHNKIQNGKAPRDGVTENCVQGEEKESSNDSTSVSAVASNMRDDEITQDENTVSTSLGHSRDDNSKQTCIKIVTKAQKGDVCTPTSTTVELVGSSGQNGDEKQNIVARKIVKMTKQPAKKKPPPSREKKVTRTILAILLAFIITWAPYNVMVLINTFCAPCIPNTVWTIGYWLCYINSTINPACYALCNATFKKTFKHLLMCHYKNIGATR

M1 muscarinic receptor [1] = molecular target: T2, M1 muscarinic receptor (Rattus norvegicus, UniProt P08482); test: Displacement of 3H-QNB from rat cerebral cortex, 50 mM phosphate buffer; assay type: binding; details: for RATIOS c:a: KH2 cerebellum : KH1 cortex (3H-QNB); for RATIOS b:a: KL1 : KH1 cortex (3H-QNB); for RATIOS d:b: KL2 cerebellum : KL1 cortex (3H-QNB); for % H1 / % L1: cortex, Table 5
T2 sequence (P08482 1-460): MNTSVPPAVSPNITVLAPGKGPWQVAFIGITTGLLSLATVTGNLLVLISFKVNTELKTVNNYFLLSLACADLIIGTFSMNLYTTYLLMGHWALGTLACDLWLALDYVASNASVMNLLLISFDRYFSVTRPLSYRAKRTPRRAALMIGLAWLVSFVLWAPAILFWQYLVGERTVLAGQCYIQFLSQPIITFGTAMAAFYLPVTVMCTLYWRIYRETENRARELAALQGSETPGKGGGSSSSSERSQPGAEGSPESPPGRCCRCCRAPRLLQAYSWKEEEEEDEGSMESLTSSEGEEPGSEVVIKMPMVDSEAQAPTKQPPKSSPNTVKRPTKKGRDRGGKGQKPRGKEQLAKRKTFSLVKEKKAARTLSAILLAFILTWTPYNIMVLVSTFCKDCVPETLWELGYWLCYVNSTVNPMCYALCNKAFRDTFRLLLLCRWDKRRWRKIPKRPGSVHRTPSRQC

muscarinic receptors = test: (-)3H-QNB binding to rat cerebral cortex homogenates with and without Cu++ treatment
[2] = tested on: rat cerebral cortex synaptosomes; test: Synaptosomal 3H-ACh release, basal and K+-evoked; details: 0.1 mM
Text: The effects of AF150 (and for comparison purposes, AF125, MeN-A-343 and oxotremorine) on basal- and K^+-evoked release of ^3H-ACh were studied on synaptosomes prepared from rat cerebral cortex using the methods described in detail by Pittel et al (J. Neurochem., 55: 665-672, 1990). […] On the other hand, the action of AF150 on presynaptic muscarinic receptors, causing an increase in K^+-evoked ACh release, can be considered either as an M2 antagonistic or an M1 agonistic effect. […] The existence of muscarinic autoreceptors that increase ACh release was manifested also in the PNS in smooth muscle preparation (Kilbinger and Nafziger, Naunyn Schmiedebergs Arch. Pharmacol. 328: 304-309, 1985).

[3] = molecular target: T3, m3 subtype (SK-N-SH cells) (Homo sapiens, UniProt P20309); test: PI hydrolysis in SK-N-SH neuroblastoma cells; assay type: cell-based
T3 construct: endogenous in cells; host or cells: SK-N-SH human neuroblastoma cells
Experimental: (§1) The new compounds AF150, AF151, AF150(S) and AF125 were assayed for their ability to stimulate PI in CHO cells transfected with m1 and m3 receptors, respectively (Buck and Fraser, loc cit), and in cultured human neuroblastoma cells, line SK-N-SH, which express mainly the m3 subtype, but not the m1 subtype (Pinkas-Kramarski et al, Neurosci. Lett. 188: 335-340, 1990; Luthin et al Mol. Pharmacol. 34: 327-333, 1988). These compounds were also assayed on cultured PC12 cells which express mainly m4 subtype receptors and are coupled to inhibition of AC activity (Pinkas-Kramarski et al, loc cit).
(§2) Stimulation of PI breakdown was assayed using the method described by Stein et al (EMBO J. 7: 3031-3035, 1988), and modulation of AC activity was assayed by the method of Stein et al, loc cit and Pinkas-Kramarski et al (FEBS Lett., 239: 174-178, 1988). […]

M1 muscarinic receptor [4] = molecular target: T2, M1 muscarinic receptor; test: Displacement of 3H-PZ from cortical binding sites, Tris/Mn buffer, with and without GppNHp; design: from tissue; host or cells: rat cerebral cortex homogenates
Text: The binding of agonists to M1 muscarinic receptors and the effect of guanylyl imidophosphate (GppNHp). Agonists are known to be coupled with guanine nucleotide binding proteins (G proteins).
Non-hydrolyzable guanine nucleotides such as GppNHp dissociate the G protein from the receptor and decrease the affinity of the receptor for agonists but not for antagonists. […] Molec.
Under these conditions agonists of high efficacy ("full agonists") bind directly to the M1 receptor subtype with two affinities. […] The ratio of low and high affinities (KL/KH) of the M1 receptor may predict the relative efficacies of agonists to activate putative M1 receptor-mediated second messenger systems.
KH, KL, %H and %L are the apparent inhibition constants of the tested ligands for the high and low affinity sites, respectively. G is GppNHp (guanylyl imidodiphosphate), and was used in 0.1 mM concentration. Displacement of ^3H-PZ from cortical binding sites was performed in Tris/Mn buffer (pH 7.4) for one hour at 25°C; the buffer included 1 mM EDTA and 2mM Mn^++ ions. […] The binding data were analyzed using a GraphPAD program and were fitted to one or two components. Values are means from 1-3 experiments carried out in triplicates.

M1 muscarinic receptor [5] = molecular target: T2, M1 muscarinic receptor; test: Displacement of 3H-PZ from rat cerebral cortex, 10 mM phosphate buffer; assay type: binding; design: from tissue; host or cells: rat cerebral cortex homogenates; details: for RATIOS c:a: KH cerebellum (3H-QNB) : KH cortex (3H-PZ)
m1 receptors = molecular target: T4, m1 receptors (Rattus norvegicus, UniProt P08482); test: PI hydrolysis in CHO cells transfected with m1 receptors; assay type: cell-based; details: CHO m1
T4 construct: expressed in transfected cells; host or cells: CHO cells
T4 sequence (P08482 1-460): T2 sequence (P08482 1-460)

[6] = molecular target: T5, m4 subtype receptors (PC12 cells) (Rattus norvegicus, UniProt P08485); test: Inhibition of adenylate cyclase activity in PC12 cells; assay type: cell-based; details: PC12 m4; tested at 1mM
T5 construct: endogenous in cells; host or cells: PC12 cells
T5 sequence (P08485 1-478): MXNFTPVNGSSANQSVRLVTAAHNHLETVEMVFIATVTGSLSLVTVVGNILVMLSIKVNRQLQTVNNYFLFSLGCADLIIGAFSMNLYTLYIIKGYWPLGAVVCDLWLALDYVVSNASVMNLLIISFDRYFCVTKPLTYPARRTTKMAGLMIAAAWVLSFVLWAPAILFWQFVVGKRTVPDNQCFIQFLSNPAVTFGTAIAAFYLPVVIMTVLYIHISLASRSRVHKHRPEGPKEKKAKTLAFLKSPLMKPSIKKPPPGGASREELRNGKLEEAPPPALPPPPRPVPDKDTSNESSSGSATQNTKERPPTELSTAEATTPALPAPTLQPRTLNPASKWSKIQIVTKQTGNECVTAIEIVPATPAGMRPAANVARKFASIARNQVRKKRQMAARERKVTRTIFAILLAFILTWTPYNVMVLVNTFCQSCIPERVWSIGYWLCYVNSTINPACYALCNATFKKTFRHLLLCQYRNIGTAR
Experimental: as §1, §2

[7] = 3H-QNB-Binding KH2 (c), Table 5
[8] = 3H-QNB-Binding KL2 (d), Table 5
[9] = with Cu++ pretreatment (100 µM, 30 minutes)
[10] = with Cu++ pretreatment (100 µM, 30 minutes), read-out: KL
[11] = without pretreatment, read-out: KH
[12] = without pretreatment, read-out: KL

T3 sequence (P20309 whole entry): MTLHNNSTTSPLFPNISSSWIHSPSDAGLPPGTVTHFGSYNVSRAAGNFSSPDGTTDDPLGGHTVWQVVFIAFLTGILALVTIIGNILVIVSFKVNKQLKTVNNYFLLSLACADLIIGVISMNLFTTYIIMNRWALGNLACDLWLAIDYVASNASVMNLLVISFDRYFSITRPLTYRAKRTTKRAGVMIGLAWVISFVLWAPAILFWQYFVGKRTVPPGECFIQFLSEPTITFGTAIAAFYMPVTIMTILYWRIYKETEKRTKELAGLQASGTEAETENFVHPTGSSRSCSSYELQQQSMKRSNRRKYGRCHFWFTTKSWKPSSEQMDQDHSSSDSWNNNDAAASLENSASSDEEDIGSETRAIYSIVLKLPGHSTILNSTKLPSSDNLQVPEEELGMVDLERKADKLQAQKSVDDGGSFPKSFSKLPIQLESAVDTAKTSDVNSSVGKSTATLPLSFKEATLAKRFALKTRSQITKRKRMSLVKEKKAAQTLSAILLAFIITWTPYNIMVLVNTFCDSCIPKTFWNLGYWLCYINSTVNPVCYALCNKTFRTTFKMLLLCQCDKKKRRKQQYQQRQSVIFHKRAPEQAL

SMILES	Ki (M2 muscarinic receptors; [7])	Ki (M2 muscarinic receptors; 3H-QNB-Binding KH (c), Table 4)	Ki (M2 muscarinic receptors; [8])	Ki (M2 muscarinic receptors; 3H-QNB-Binding KL (d), Table 4)	RATIOS d:c (M2 muscarinic receptors)	% H (M2 muscarinic receptors; Table 4)	%L (M2 muscarinic receptors; Table 4)	% H2 (M2 muscarinic receptors; Table 5)	% L2 (M2 muscarinic receptors; Table 5)	RATIOS c:a (M1 muscarinic receptor [1])	RATIOS b:a (M1 muscarinic receptor [1])	RATIOS d:b (M1 muscarinic receptor [1])	% H1 (M1 muscarinic receptor [1])	% L1 (M1 muscarinic receptor [1])	%H (% of high affinity state) (muscarinic receptors; [9])	Ki (muscarinic receptors; [10])	%H (% of high affinity state) (muscarinic receptors; without pretreatment)	Ki (muscarinic receptors; [11])	Ki (muscarinic receptors; [12])	K+-evoked 3H-ACh release [2]	other results
O=C1CCCN1CC#CCN1CCCC1 [Oxotremorine]	14 nM	14 nM	580 nM	580 nM	41	35%	65%	35%	65%	0.9	100	0.36	13%	87%	51%	7200 ± 1700 nM	32%	20 ± 5 nM	13300 ± 1400 nM	56%	%H (% of high affinity state) (muscarinic receptors; with Cu++ pretreatment (100 µM, 30 minutes), listed as 3): 51±7%; %H (% of high affinity state) (muscarinic receptors; without pretreatment, listed as 3): 32±3%
C[N+](C)(C)CC#CCN1CCCC1=O [Oxotremorine-M, reference compound]	69 nM	69 nM	5200 nM	5200 nM	75	49%	51%	49%	51%	0.6	336	0.14	26%	74%	–	–	–	–	–	–	accumulation of inositol-1-phosphate (IP1) stimulated over basal level [3]: 5.24 fold; % H (M1 muscarinic receptor [4]; +G (0.1 mM GppNHp)): 2.7%; %L (M1 muscarinic receptor [4]; +G (0.1 mM GppNHp)): 73%; % H (M1 muscarinic receptor [4]; -G): 53%; %L (M1 muscarinic receptor [4]; -G): 47%; Ki (M1 muscarinic receptor [4]; KH, +G (0.1 mM GppNHp)): 350 nM; Ki (M1 muscarinic receptor [4]; KH, -G (without GppNHp)): 110 nM; Ki (M1 muscarinic receptor [4]; KL, +G (0.1 mM GppNHp)): 4200 nM; Ki (M1 muscarinic receptor [4]; KL, -G): 6700 nM; KL-G / KH-G (M1 muscarinic receptor [4]; ratio of low and high affinities without GppNHp): 61; % H (M1 muscarinic receptor [5]): 53%; %L (M1 muscarinic receptor [5]): 47%; RATIOS b:a (M1 muscarinic receptor [5]): 67; Ki (M1 muscarinic receptor [5]; 3H-PZ-Binding KH (a)): 100 nM; Ki (M1 muscarinic receptor [5]; 3H-PZ-Binding KL (b)): 6700 nM; RATIOS c:a (M1 muscarinic receptor [5]): 0.69; RATIOS d:b (M1 muscarinic receptor [5]; KL cerebellum (3H-QNB) : KL cortex (3H-PZ)): 0.78
CC1=NCC2(CCN(C)CC2)S1 [AF150(S), 2-Methyl-spiro(1,3-thiazoline-5,4')-1'-methylpiperidine]	–	–	–	–	–	–	–	–	–	–	–	–	–	–	–	–	–	–	–	–	PI, % of carbachol effect (m1 receptors): 17%; PI (phosphoinositides hydrolysis) (m1 receptors; tested at 1mM): +
C[N+](C)(C)CC#CCOC(=O)Nc1cccc(Cl)c1 [McN-A-343]	11000 nM	–	–	–	–	100%	–	100%	–	1.9	–	–	100%	–	30±7%	5700 ± 200 nM	13±5%	340 ± 100 nM	8500 ± 800 nM	172%	Ki (M2 muscarinic receptors; Table 4, read-out: 3H-QNB-Binding KH (c)): 24400 nM; Ki (muscarinic receptors; with Cu++ pretreatment (100 µM, 30 minutes), read-out: KH): 180 ± 90 nM; Basal 3H-ACh release [2]: 144%; % H (M1 muscarinic receptor [5]): 100%; Ki (M1 muscarinic receptor [5]; 3H-PZ-Binding KH (a)): 3800 nM; RATIOS c:a (M1 muscarinic receptor [5]): 6.4
C[N+](C)(C)CCOC(N)=O [Carbachol, reference compound]	–	–	–	–	–	–	–	–	–	–	–	–	–	–	–	–	–	–	–	–	AC (adenylate cyclase activity) [6]: +++

Source: EP0452101B1, “Spiro bridged and unbridged heterocyclic compounds” (ISRAEL INSTITUTE FOR BIOLOGICAL RESEARCH, priority 1990, dated 1991)
